Measurements: patent US20070066616A1, “Inhibitors for extracellular signal-regulated kinase docking domains and uses therefor” (priority 2005, published 2007)
“Also recorded” adds a separate entry of the source.

How the values were obtained:
ERK2 = biological target: T1, ERK2 (Mus musculus, UniProt P63085); assay: Fluorescence titration (quenching of intrinsic ERK2 fluorescence); type: binding
T1 construct: (His)x6; made in house; host or cells: bacteria
Protocol: (§1) Experiments measure the changes in the intrinsic ERK2 fluorescence due to the presence of aromatic amino acids, with the indole group of tryptophan being the major fluorophore with absorption and emission maxima around 280 and 340 nanometers (nm), respectively. Fluorescence spectra were recorded with a Luminescence Spectrometer LS50 (Perkin Elmer, Boston, Mass.). For all experiments, ERK2 protein was diluted into 20 mM Tris-HCl, pH 7.5. Titrations were performed by increasing the test compound concentration while maintaining the ERK2 protein concentration at 3 μM.
The excitation wavelength was 295 nm and fluorescence was monitored from 300 to 500 nm. All reported fluorescence intensities are relative values and are not corrected for wavelength variations in detector response. Dissociation constants, KD, were determined using reciprocal plots, 1/ν vs 1/[I], where ν represents the percent occupied sites calculated assuming fluorescence quenching to be directly proportion to the percentage of occupied binding sites, [I] represents the concentration of the inhibitor compound and the slope of the curve equals the KD (48-49).
ERK2 contains three tryptophans, which have intrinsic fluorescence. Fluorescence quenching of ERK2 by the test compounds is indicative of binding interactions and potential protein conformational changes.

ERK2 D316N = biological target: T2, ERK2 D316N (Mus musculus, UniProt P63085, D316N); assay: Fluorescence titration with ERK2 point mutant D316N (CD domain); type: binding; details: fluorescence quenching
T2 construct: (His)x6; made in house; host or cells: bacteria (as described for ERK2 in general; not repeated for the mutant)
T2 sequence (P63085 whole entry D316N, the tested form may be a part): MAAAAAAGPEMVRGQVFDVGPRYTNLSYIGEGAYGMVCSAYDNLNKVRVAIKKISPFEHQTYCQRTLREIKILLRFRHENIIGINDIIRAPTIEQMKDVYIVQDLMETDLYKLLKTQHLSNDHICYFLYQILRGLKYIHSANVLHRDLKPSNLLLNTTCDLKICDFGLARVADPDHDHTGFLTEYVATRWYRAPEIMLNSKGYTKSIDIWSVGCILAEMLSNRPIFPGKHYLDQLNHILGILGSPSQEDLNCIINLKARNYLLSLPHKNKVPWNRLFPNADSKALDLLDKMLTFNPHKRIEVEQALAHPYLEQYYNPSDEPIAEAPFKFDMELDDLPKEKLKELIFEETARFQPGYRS
Protocol: as §1, with “Direct binding interactions between ERK2 and the biologically active compounds is determined using fluorescence spectroscopy (47). Experiments” for “Experiments”
(§2) Unphosphorylated and phosphorylated ERK2 typically are incubated with […] of the biologically active compounds and the fluorescence intensity is measured. If necessary, higher inhibitor concentrations are used to saturate fluorescence quenching. The excitation wavelength was 295 nm and fluorescence was monitored from 300 to 500 nm. All reported fluorescence intensities are relative values and are not corrected for wavelength variations in detector response. […] Because the test compounds contain aromatic structures, the emission spectra of the active compounds in the absence of ERK2 is be determined. […]

ERK2 T157A = biological target: T3, ERK2 T157A (Mus musculus, UniProt P63085, T157A); assay: Fluorescence titration with ERK2 point mutant T157A (ED domain); type: binding; details: fluorescence quenching
T3 construct: (His)x6; made in house; host or cells: bacteria (as described for ERK2 in general; not repeated for the mutant)
T3 sequence (P63085 whole entry T157A, the tested form may be a part): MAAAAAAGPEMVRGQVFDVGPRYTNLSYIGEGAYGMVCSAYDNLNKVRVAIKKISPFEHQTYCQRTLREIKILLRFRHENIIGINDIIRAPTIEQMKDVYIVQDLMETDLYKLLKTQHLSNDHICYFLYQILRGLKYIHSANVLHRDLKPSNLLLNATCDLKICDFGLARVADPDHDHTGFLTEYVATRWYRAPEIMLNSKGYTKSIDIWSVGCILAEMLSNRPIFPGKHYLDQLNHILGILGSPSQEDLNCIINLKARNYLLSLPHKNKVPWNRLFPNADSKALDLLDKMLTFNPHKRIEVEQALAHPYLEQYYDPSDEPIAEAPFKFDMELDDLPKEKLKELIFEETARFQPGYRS
Protocol: as §1, with “Direct binding interactions between ERK2 and the biologically active compounds is determined using fluorescence spectroscopy (47). Experiments” for “Experiments”
as §2

[1] = test system: A549 lung carcinoma cells; assay: Colony formation assay, A549 cells; type: cell-based, human; details: colony formation dose response (FIG. 7C)
Protocol: (§3) HeLa, A549, or SUM-159 cells were plated at a low density of ˜200-400 cells per well in the absence or presence of putative ERK docking domain inhibitors. Cell colonies were stained with crystal violet and counted after 6-10 days. In FIG. 7A cells were grown on 10 cm plates in the absence (−) or presence of 100 mM of compound 67, 36, 68, 81, or 76. Colony formation dose response in the presence of the indicated concentrations of compound 76 or 81 for Hela cells (100 mM) (FIG. 7B), A549 cells (50 mM) (FIG. 7C), or SUM-159 cells (50 mM) (FIG. 7D).
(§4) Trypsinized cells were plated on 12 or 24 well plates at low densities (200-400 cells per well) in the absence (DMSO only) or presence of test compounds. In additional experiments, cells were first allowed to adhere to the culture dishes for 16 hours prior to treatment with test compounds. The treated cells received a single dose of the test compounds at the beginning of the experiments. The control and treated cells were grown for 8-14 days to allow the formation of colonies. Cells then were fixed for 10 minutes in 4% paraformaldehyde and stained with 0.2% crystal violet (in 20% methanol) for 1-2 minutes. Following several washes with distilled water, the colonies (containing at least 40 cells) were counted. Each individual experiment was repeated on at least 3 separate occasions.

[2] = test system: SUM-159 estrogen-receptor negative breast cancer cell line; assay: Cell proliferation, SUM-159 cells; type: cell-based, human
Protocol: as §3, §4

[3] = test system: HT1080 fibrosarcoma cells; assay: Cell proliferation, HT1080 cells; type: cell-based, human; details: data not shown
Protocol: as §4

T1 sequence (P63085 whole entry): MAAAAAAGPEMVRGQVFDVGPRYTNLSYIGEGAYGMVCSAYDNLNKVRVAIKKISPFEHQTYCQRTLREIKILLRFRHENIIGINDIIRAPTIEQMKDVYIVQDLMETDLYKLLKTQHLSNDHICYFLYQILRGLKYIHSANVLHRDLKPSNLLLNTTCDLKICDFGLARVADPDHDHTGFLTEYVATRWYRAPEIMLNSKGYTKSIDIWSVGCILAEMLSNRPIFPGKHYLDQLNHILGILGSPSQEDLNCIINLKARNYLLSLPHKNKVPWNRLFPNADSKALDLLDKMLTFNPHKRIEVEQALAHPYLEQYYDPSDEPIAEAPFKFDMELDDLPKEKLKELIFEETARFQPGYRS

Structure (SMILES): CCOc1ccc(C=C2SC(=O)N(CCN)C2=O)cc1 [Compound 76]
- y-intercept of reciprocal plot (indicating a single binding site) (ERK2; 1/ν vs 1/[I] plot): 1.8
- ERK2 fluorescence quenching / binding (in words) (ERK2; fluorescence titration): strong quenching; also recorded: bind to directly ERK2
- reduction in binding affinity compared to wild type ERK2 (ERK2 D316N): approximately 5 fold
- reduction in binding affinity compared to wild type ERK2 (ERK2 T157A): approximately 5 fold
- IC50 [1]: ~25 µM
- inhibition of cell proliferation in SUM-159 (in words) [2]: inhibition of cell proliferation
- inhibition of cell proliferation in HT1080 (in words) [3]: inhibition of cell proliferation
